From patent US4299813A, “Assay kit and method” (priority 1979, dated 1981)
Several values for one entry are separate records, joined by “and”; a condition that tells them apart may be missing. Equal values may be shown once.

System: muscarinic cholinergic receptor
Experiment: Muscarinic cholinergic radioreceptor assay ([3H] QNB competition, serum antidepressant levels)
Assay type: binding, rat (Sprague-Dawley)
[1] = Standard C, 5.0 μM amitriptyline, Table II
[2] = Standard D, 1.0 μM amitriptyline, Table II
[3] = Standard E, 0.2 μM amitriptyline, Table II
[4] = Standard C, 50 μM imipramine, Table III
[5] = Standard D, 10 μM imipramine, Table III
[6] = Standard E, 2 μM imipramine, Table III

`CN(C)CCC=C1c2ccccc2CCc2ccccc21` [amitriptyline] was tested, and the CPM (Sample 1, serum, Table II) was 2537 CPM and 2867 CPM, the “Logit (B/Bo)” value (Sample 1, serum, Table II) was -0.644 and -0.562 and the CPM (Sample 2, serum, Table II) was 7735 CPM and 7778 CPM and 7386 CPM. For the same compound, the “Logit (B/Bo)” value (Sample 2, serum, Table II) was 0.288 and 0.295 and 0.227, the CPM (Standard A, 10^-5 M amitriptyline (background), Table II) was 533 CPM and 529 CPM and 479 CPM and the CPM (Standard A, 10^-5 M amitriptyline (background), imipramine curve, Table III) was 533 CPM and 529 CPM and 479 CPM. The CPM [1] was 1914 CPM and 1790 CPM and 1679 CPM, the “Logit (B/Bo)” value [1] was -0.834 and -0.879 and -0.924 and the CPM [2] was 5285 CPM and 5442 CPM and 5239 CPM. The “Logit (B/Bo)” value [2] was -0.112 and -0.087 and -0.119, the CPM [3] was 9240 CPM and 9692 CPM and the “Logit (B/Bo)” value [3] was 0.595 and 0.716. For the same compound, the CPM (Standard F, 0.04 μM amitriptyline, Table II) was 11235 CPM.

With `CN(C)CCCN1c2ccccc2CCc2ccccc21` [imipramine] the CPM (Sample 1, serum, Table III) was 7105 CPM and 7146 CPM and 6773 CPM, the “Logit (B/Bo)” value (Sample 1, serum, Table III) was 0.180 and 0.187 and 0.125 and the CPM (Sample 2, serum, Table III) was 9642 CPM and 8636 CPM and 8069 CPM. The CPM [4] was 4922 CPM and 4908 CPM and 4803 CPM, the “Logit (B/Bo)” value [4] was -0.171 and -0.173 and -0.191 and the CPM [5] was 8706 CPM and 8704 CPM and 8799 CPM. The “Logit (B/Bo)” value [5] was 0.473 and 0.493, the CPM [6] was 10370 CPM and 10617 CPM and 10843 CPM and the “Logit (B/Bo)” value [6] was 0.957 and 1.079 and 1.224.
